Reference: patent US20230258624A1, “Ex vivo tumour immune microenvironment model, a method for preserving a tumour-specific immune cell profile in an ex vivo tumour immune microenvironment model and use of nanofibrillar cellulose” (UPM-Kymmene Corporation, priority 2022, published 2023)

Tested on: PDECs
Assay: Cytokine profiling (ELISA) of PDEC growth media
Format: cell-based, human
Experimental: Media (1 ml) collected from NFC-grown PDECs or PBMCs at day 3 and day 7 timepoints was stored at −80° C. until the day of analysis. […] Cell and matrix debris were removed after thawing by centrifugation (10 min, 10 000 G, RT). Cytokines secreted to growth media were analyzed with R&D DuoSetELISA kits (IL2: DY202-05, IL-10: DY217B-05, TNF-α: DY210-05, IFN-γ: DY285B-05, IL-4: DY204-05, IL-6: DY206-05, IL-1β/IL1F2: DY201-05, LAP (TGF-β1): DY246-05) together with DuoSet Ancillary Reagent Kit 2 (DY008), according to manufacturer's protocol. Briefly, plates were coated with capture antibody overnight at RT, washed 3 times and blocked with 1% BSA in PBS for 1 hour. Samples diluted in growth media were added and incubated for 2 hours at RT. After 3 washes, detection antibody was added and incubated for 2 hours at RT. After washes, Streptavidin-HRP was added and incubated for 20 min at RT, protected from light. After washes, Substrate solution was added for 20 min, protected from light, after which the reaction was stopped with stop solution and absorbance was immediately determined using a microplate reader set to 450 nm, and 540 nm to subtract background (Omega Fluostar, BMG Labtech).

O=C(O)CCCC[C@@H]1SC[C@@H]2NC(=O)N[C@@H]21 [biotin]
amount of inflammatory cytokine IFN-γ (1 μM biotin added to PDEC growth media, NFC cultures): clearly decreased | inflammatory cytokine secretion into the media (biotin added to growth media after functionalization of the matrix): clearly decreased
